Results from patent US20220061311A1, “COMPOSITIONS AND METHODS FOR REDUCING CRYOPRESERVATION TOXICITY” (The Regents of the University of Colorado, a body, priority 2018, published 2022).
Several values for one entry are separate records, joined by “and”; a condition that tells them apart may be missing. Equal values may be shown once. Read-outs that look alike come from different tables or passages of the source.

Assays:
TJ1060 worms [1] = test: Worms on 10% M22 +/- Afatinib in liquid survival medium; format: in vivo, C. elegans; parameters: Mean (survival): unit not given here
Protocol: FIG. 6 is a histogram. Sterile young adult worms (TJ1060) were put into liquid survival medium with 10% M22 and varying concentrations of Afatinib and followed until all were dead. Data from 4 replicate blinded experiments are shown.
Young adult worms from TJ1060 were grown on agar plates at 25° C. with varying concentrations of Afatinib and put into liquid survival medium with 10% M22+/−Afatinib at 20° C. They were followed until all were dead. Data from 4 replicate experiments are shown; experiments were blinded.

TJ1060 worms [2] = test: Survival on Afatinib on agar plates; format: in vivo, C. elegans; parameters: Mean (survival): unit not given here; settings: for Mean (survival) / survival (vs no Afatinib control): agar plates
Protocol: Eggs from TJ1060 were put onto NGM agar plates with varying concentrations of Afatinib at 25° C. On day 3, sterile staged young adult worms were moved to agar plates with Afatinib at 20° C. and followed until all were dead.

ERB3/4 = settings: cited from earlier work
[3] = test system: Mouse embryonic stem cells (ESCs); test: Afatinib pre-treatment of mouse embryonic stem cells before M22 toxicity challenge; format: cell-based
Protocol: Mouse embryonic stem cells (ESCs) were pre-treated with Afatinib in concentrations of 1 nM, 7.5 nM, 15 nM, 30 nM, and 75 nM. The ESCs were then subjected to various concentrations of M22, including a lethal challenge of 6% in normal culture media.

HSBP1 protein = settings: Arai et al., Chem. Sci., 2016; cited from earlier work
MYH9 protein = MYH9 protein (Homo sapiens, UniProt P35579); settings: Chiu et al., Molecular Oncology 6, 2012; cited from earlier work
MYH9 protein, sequence (P35579 whole entry, species assumed): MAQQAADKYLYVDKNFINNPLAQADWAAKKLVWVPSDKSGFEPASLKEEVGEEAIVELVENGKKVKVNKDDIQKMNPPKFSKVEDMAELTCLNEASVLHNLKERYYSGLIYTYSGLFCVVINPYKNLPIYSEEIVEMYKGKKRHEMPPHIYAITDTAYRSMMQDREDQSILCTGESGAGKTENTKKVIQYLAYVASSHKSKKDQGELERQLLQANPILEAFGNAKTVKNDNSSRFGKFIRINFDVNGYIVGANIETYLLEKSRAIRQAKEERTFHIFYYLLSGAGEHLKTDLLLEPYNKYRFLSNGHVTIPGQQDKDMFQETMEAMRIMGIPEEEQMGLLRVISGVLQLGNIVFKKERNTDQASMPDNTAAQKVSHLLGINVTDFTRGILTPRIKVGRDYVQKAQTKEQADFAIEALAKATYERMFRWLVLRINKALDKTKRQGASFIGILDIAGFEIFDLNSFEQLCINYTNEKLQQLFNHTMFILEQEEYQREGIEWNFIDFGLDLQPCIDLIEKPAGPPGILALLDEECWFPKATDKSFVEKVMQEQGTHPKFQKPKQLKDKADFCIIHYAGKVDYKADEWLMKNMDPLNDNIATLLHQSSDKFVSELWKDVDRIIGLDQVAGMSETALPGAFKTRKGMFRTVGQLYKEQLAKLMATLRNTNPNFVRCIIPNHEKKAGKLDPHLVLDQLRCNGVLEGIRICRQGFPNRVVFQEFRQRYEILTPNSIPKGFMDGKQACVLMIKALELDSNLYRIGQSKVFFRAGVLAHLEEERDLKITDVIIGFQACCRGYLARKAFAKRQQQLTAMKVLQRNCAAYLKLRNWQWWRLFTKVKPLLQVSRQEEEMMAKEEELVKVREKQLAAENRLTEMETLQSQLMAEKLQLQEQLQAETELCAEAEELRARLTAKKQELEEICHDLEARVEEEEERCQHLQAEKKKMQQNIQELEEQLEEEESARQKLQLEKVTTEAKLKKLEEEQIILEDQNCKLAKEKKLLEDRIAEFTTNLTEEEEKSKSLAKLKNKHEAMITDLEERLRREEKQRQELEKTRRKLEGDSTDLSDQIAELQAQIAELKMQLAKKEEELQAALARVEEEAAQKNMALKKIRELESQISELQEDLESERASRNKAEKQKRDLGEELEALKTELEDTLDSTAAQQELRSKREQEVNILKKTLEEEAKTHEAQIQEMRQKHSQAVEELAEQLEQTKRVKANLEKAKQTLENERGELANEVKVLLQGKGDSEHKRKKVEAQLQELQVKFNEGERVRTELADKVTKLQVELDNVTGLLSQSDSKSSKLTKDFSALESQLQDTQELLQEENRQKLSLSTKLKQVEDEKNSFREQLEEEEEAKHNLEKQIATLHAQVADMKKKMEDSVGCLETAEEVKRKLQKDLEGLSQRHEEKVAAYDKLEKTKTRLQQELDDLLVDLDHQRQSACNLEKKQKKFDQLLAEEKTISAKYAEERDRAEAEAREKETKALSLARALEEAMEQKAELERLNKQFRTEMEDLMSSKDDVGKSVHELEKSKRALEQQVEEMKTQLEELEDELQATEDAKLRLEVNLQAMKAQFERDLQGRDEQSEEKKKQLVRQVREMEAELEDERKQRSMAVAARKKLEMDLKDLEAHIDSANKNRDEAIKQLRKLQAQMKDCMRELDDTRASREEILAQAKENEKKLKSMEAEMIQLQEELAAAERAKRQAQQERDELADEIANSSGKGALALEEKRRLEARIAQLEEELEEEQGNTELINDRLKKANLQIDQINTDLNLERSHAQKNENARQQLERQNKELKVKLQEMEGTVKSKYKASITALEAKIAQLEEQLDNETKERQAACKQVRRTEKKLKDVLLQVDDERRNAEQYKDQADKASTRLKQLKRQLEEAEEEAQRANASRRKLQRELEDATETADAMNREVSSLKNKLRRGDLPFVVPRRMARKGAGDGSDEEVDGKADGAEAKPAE

[4] = 10% M22 + Afatinib 10 nM, summary of 4 experiments
[5] = 10% M22 + Afatinib 100 nM, summary of 4 experiments
[6] = 10% M22 + Afatinib 1000 nM, summary of 4 experiments

What does the source list for CN(C)C/C=C/C(=O)Nc1cc2c(Nc3ccc(F)c(Cl)c3)ncnc2cc1O[C@H]1CCOC1 [Afatinib]?
Mean (survival) (TJ1060 worms [1]; 10% M22 + Afatinib 10 nM, liquid, 20° C., single experiments): 12.4 and 12.3 and 14.6 and 10.4; resistance (vs no Afatinib control) (TJ1060 worms [1]; 10% M22 + Afatinib 10 nM, single experiments): ns and less; Mean (survival) (TJ1060 worms [1]; [4]): 12.5; resistance (vs no Afatinib control) (TJ1060 worms [1]; [4]): ns; Mean (survival) (TJ1060 worms [1]; 10% M22 + Afatinib 100 nM, liquid, 20° C., single experiments): 13.5 and 13.2 and 15.3 and 11.3; resistance (vs no Afatinib control) (TJ1060 worms [1]; 10% M22 + Afatinib 100 nM, single experiments): more and ns; Mean (survival) (TJ1060 worms [1]; [5]): 13.4; resistance (vs no Afatinib control) (TJ1060 worms [1]; [5]): more; Mean (survival) (TJ1060 worms [1]; 10% M22 + Afatinib 1000 nM, liquid, 20° C., single experiments): 13.2 and 13.0 and 15.6 and 10.3; resistance (vs no Afatinib control) (TJ1060 worms [1]; 10% M22 + Afatinib 1000 nM, single experiments): ns and more; Mean (survival) (TJ1060 worms [1]; [6]): 13.0; resistance (vs no Afatinib control) (TJ1060 worms [1]; [6]): ns; protection of worms in 10% M22 (TJ1060 worms [1]; Afatinib 10 or 1000 nm): not; survival in 10% M22 compared with control of no afatinib (FIG. 6) (TJ1060 worms [1]; Afatinib at 100 nM, 4 replicate blinded experiments, p<0.001): significantly better than control of no afatinib; protection of worms in 10% M22 (TJ1060 worms [1]; Afatinib concentration of 100 nm): protects worms in 10% M22; Mean (survival) (TJ1060 worms [2]; Afatinib 10 nM, no M22, single experiments): 20.5 and 19.7 and 19.1 and 22.1; survival (vs no Afatinib control) (TJ1060 worms [2]; Afatinib 10 nM, single experiments): less and ns; Mean (survival) (TJ1060 worms [2]; Afatinib 10 nM, summary): 20.3; survival (vs no Afatinib control) (TJ1060 worms [2]; Afatinib 10 nM, summary): ns; Mean (survival) (TJ1060 worms [2]; Afatinib 20 nM, no M22, single experiment): 21.1; survival (vs no Afatinib control) (TJ1060 worms [2]; Afatinib 20 nM, single experiment): ns; Mean (survival) (TJ1060 worms [2]; Afatinib 100 nM, no M22, single experiments): 19.4 and 21.1 and 19.8 and 21.8; survival (vs no Afatinib control) (TJ1060 worms [2]; Afatinib 100 nM, single experiments): less and more and ns; Mean (survival) (TJ1060 worms [2]; Afatinib 100 nM, summary): 20.4; survival (vs no Afatinib control) (TJ1060 worms [2]; Afatinib 100 nM, summary): ns; Mean (survival) (TJ1060 worms [2]; Afatinib 1000 nM, no M22, single experiments): 20.8 and 21.7 and 19.4 and 20.0; survival (vs no Afatinib control) (TJ1060 worms [2]; Afatinib 1000 nM, single experiments): ns and more and less; Mean (survival) (TJ1060 worms [2]; Afatinib 1000 nM, summary): 20.6; survival (vs no Afatinib control) (TJ1060 worms [2]; Afatinib 1000 nM, summary): less; longevity effect (TJ1060 worms [2]; worms, Afatinib without M22): did not have a longevity effect; IC50 (ERB3/4; read-out: IC50): ~1 nM; IC50 (ERB3/4; read-out: IC50 DOSE): 1 nM; resistance to M22 toxicity ([3]; ESCs pre-treated with Afatinib 1-75 nM, lower M22 concentrations (FIG. 1)): increased resistance to M22 toxicity; survival of otherwise lethal M22 challenge ([3]; ESCs pre-treated with Afatinib, 6% M22 in normal culture media (FIG. 1)): survived an otherwise lethal M22 challenge; survival of cells after cryopreservative toxicity challenge with M22 (FIG. 1) ([3]; cells treated with Afatinib prior to M22 challenge): increased survival

Which “inhibition of HSBP1 protein” value (HSBP1 protein) does the source give for COc1ccc(-c2cc(=O)c3c(O[C@@H]4O[C@H](CO[C@@H]5OC[C@@H](O)[C@H](O)[C@H]5O)[C@@H](O)[C@H](O)[C@H]4O)cc(OC)cc3o2)cc1 [Agalloside] here?
Its value is “Agalloside inhibits the HSBP1”.

Which “inhibition of MYH9 protein” value (MYH9 protein) does the source give for Cc1ccc2c(c1)C(=O)C1(O)CCN(c3ccccc3)C1=N2 (stereo not shown) [Blebbistatin] here?
Its value is “Blebbistatin inhibits the MYH9”.
